Results: publication PMC12463534, “Exploring the Anticancer Properties of 4-Phenylthiazole-Based Ru(II) and Os(II) Metallacycles Featuring 1-Methylimidazole as N-Donor Functionality” (Bioinorganic Chemistry and Applications, 2025)
Read-outs that look alike come from different tables or passages of the source.

Key:
[1] = system: HCT116 colorectal cancer cell line (2D); test: Resazurin assay, HCT116 2D (monolayer) culture; conditions: read-out: IC50 2D, resazurin assay, 96 h exposure
Experimental: Both models were investigated by the fluorimetric resazurin assay after 96-h exposure.
HCT116 colorectal carcinoma cells (RRID:CVCL_0291 from ATCC) were cultivated in McCoy's 5A medium, supplemented with 10% heat-inactivated fetal bovine serum and 4 mM L-glutamine.
For 2D experiments, HCT116 cells were harvested from culture flasks by trypsinization, seeded in 100-μL aliquots into 96-well microculture plates (CytoOne, TC-treated, from Starlab) in densities of 2 × 10^3 cells per well, and incubated for 24 h prior to exposure to the test compounds. […] Stock solutions of test compounds were prepared in DMF, which were then diluted in McCoy's 5A-supplemented medium (not to exceed a final content of 0.5% v/v of organic solvent in the test plates), and serial dilutions were added in aliquots of 100 μL per well. […] After incubation for 4 h, fluorescence was measured with a microplate reader (Bio-Tek, SynergyHT) at a wavelength of 530 nm, additionally using a reference wavelength of 620 nm.

[2] = system: CH1/PA-1 ovarian teratocarcinoma cells; parameters: method as in PMID 38426897; conditions: MTT assay, exposure time 96 h; ref [5]; read-out: 50% inhibitory concentration CH1 (chlorido complexes, reference) (converted); cited from earlier work
[3] = system: A549 lung adenocarcinoma cells; parameters: method as in PMID 38426897; conditions: MTT assay, exposure time 96 h; ref [5]; read-out: 50% inhibitory concentration A549 (chlorido complexes, reference) (converted); cited from earlier work
[4] = system: G4 forming sequences (h-Telo, bcl2, hTERT, Kit1, Kit2) and dsDNA; parameters: method as in PMID 38426897; conditions: recent work; ref [5]; cited from earlier work
[5] = system: Balb/c mice; test: Toxicity experiments in Balb/c mice (MTD); conditions: for Toxicity in mice: i.p. 50 mg/kg, three consecutive days, 10% DMSO in 0.9% NaCl; for MTD fold lower compared to 1c and 3c: mice
Experimental: Finally, we were interested in the anticancer activity of selected complexes of our panel in an in vivo mouse setting. Before injecting the compounds in tumor-bearing mice, toxicity experiments were performed. […] On the last day of therapy, most animals were sacrificed and tissues as well as tumors collected. Only four mice (per group) were kept to get information on the impact of the drugs on the overall survival.

[6] = system: SW480 cells; test: DCFH-DA assay, cellular ROS levels; assay type: cell-based, human; conditions: 2 h, concentration dependent
Experimental: For this approach, SW480 cells were subjected to the 2′,7′-dichlorofluorescin-diacetate (DCFH-DA) assay.
SW480 colon adenocarcinoma cells were trypsinized for 5 min in a humidified incubator at 37°C and under a 5% CO2 atmosphere. Supplemented MEM was added to stop trypsinization, and cells were centrifuged for 3 min at 1200 rpm (Heraeus Megafuge 1.0R). After cell counting, SW480 cells were seeded in 100-μL aliquots in densities of 2.5 × 10^4 cells/well into 96-well clear flat-bottom microplates (CytoOne, TC-treated, from Starlab). After incubation for 24 h, cells were washed with 200 μL of Hanks' balanced salt solution (HBSS; Sigma-Aldrich; supplemented with 1% heat-inactivated FCS). […] After washing cells with 200 μL of supplemented HBSS, serially diluted test compounds in phenol-red-free Opti-MEM (Gibco), supplemented with 1% heat-inactivated FCS, were added in 200-μl triplicates and tert-butyl hydroperoxide (TBHP) was applied as positive control. […] Blank-corrected values were calculated relative to negative controls (treated with drug-free supplemented Opti-MEM) from three independent experiments.

[7] = system: SW480 colon adenocarcinoma cells; parameters: method as in PMID 38426897; conditions: MTT assay, exposure time 96 h; ref [5]; read-out: 50% inhibitory concentration SW480 (chlorido complexes, reference) (converted); cited from earlier work
[8] = system: HCT116 multicellular tumor spheroids (3D); test: Resazurin assay, HCT116 3D multicellular tumor spheroids; conditions: read-out: IC50 3D; HCT116 3D spheroids, resazurin assay, 96 h exposure
[9] = system: A549 lung adenocarcinoma cells; test: MTT assay, inhibition of cancer cell growth, A549; conditions: read-out: 50% inhibitory concentration A549, exposure time 96 h
Experimental: (§2) CH1/PA-1 ovarian teratocarcinoma cells (CH1, RRID: CVCL_4992, provided by L. R. Kelland, CRC Center for Cancer Therapeutics, Institute of Cancer Research, Sutton, UK; confirmed by STR profiling as PA-1 ovarian teratocarcinoma cells at Multiplexion, Heidelberg, Germany), SW480 colon adenocarcinoma (RRID: CVCL_0546), and A549 lung adenocarcinoma cells (NCI-H2618, RRID: CVCL_A549; both cell lines were obtained from the American Type Culture Collection (ATCC), Manassas, VA, USA) were grown as adherent cultures in 75-cm^2 culture flasks (Starlab, Hamburg, Germany) by using minimal essential medium (MEM) supplemented with 1 mM sodium pyruvate, 4 mM L-glutamine, 1% (v/v) nonessential amino acids from 100-fold stock (all purchased from Sigma-Aldrich), and 10% heat-inactivated fetal bovine serum (Serana, Pessin, Germany).
(§3) The 3-(4,5-dimethylthiazol-2-yl)-2,5-diphenyl-2H tetrazolium bromide (MTT, Acros Organics, Geel, Belgium) assay was used to detect the cytotoxicity of the compounds after 96-h incubation. For this purpose, cells were harvested from culture flasks by trypsinization, seeded in 100-μL aliquots into 96-well microculture plates (Starlab, UK) in densities of 1 × 10^3 (CH1/PA-1), 2 × 10^3 (SW480), and 3 × 10^3 (A549) cells per well and incubated for 24 h prior to exposure to the test compounds. Stock solutions of test compounds were prepared in DMF, which were then diluted in MEM (not to exceed a final content of 0.5% v/v of organic solvent in the test plates), and serial dilutions were added in aliquots of 100 μL per well. […] After incubation for 4 h, the medium/MTT mixtures were removed, and the produced formazan crystals were dissolved in 150 μL DMSO per well. Optical densities at 550 nm were measured spectrophotometrically with a ELx808 Absorbance Microplate Reader (Bio-Tek, Winooski, VT, USA) by using a reference wavelength of 690 nm to correct for unspecific absorption.

[10] = system: G4 forming sequences (h-Telo, bcl2, hTERT, Kit1, Kit2) and dsDNA; test: FRET melting assay, G-quadruplex / B-DNA interaction; assay type: binding, human; conditions: 60 mM potassium cacodylate pH 7.4, 2 h incubation
Experimental: G4s are DNA secondary motifs that play crucial roles in cancer development. […] The complexes were incubated with different G4 forming sequences: one derived from human telomere-forming (h-Telo) and four corresponding to promoter regions of oncogenes, namely, bcl2, hTERT, Kit1, and Kit2. For comparison, a self-complementary sequence called dsDNA was used to represent B-DNA (Table S2).
FRET experiments were conducted using an Applied Biosystems QuantStudio 6 PCR cycler in a 96-well format equipped with a FAM (6-carboxyfluorescein) filter. Oligonucleotide stock solutions, labelled with FAM and TAMRA (6-carboxytetramethylrhodamine) probes, were diluted to the desired concentration in a 60-mM potassium cacodylate buffer (pH 7.4). To fold the oligonucleotides into their B-DNA or G4 topologies, the solutions were heated to 95°C for 5 min and then allowed to cool slowly to room temperature overnight. The final concentration of the oligonucleotides was 0.2 μM, with a total volume of 30 μL in each well. Metal complexes were dissolved in DMF to prepare 2 mM stock solutions and further diluted with the buffer, where DMF concentration never exceeded 0.05%. Mixtures of oligonucleotides and metal compounds were left at room temperature for 2 h. Data were collected twice, each time in duplicate, over a temperature range of 25°C–95°C, with a ramp of 1°C every 30 s. FAM emission data were normalized from 0 to 1 to compare different datasets. After data normalization, we extrapolated the T1/2 values, i.e., the temperature at which normalized FAM emission is 0.5. The DNA concentration is expressed in strands.

[11] = Solubility in 1% DMF/PBS
Excerpt: Solubility is an important factor for the application of metallodrugs. DMF was used as solubilizer to allow comparison to the respective chlorido complexes where the usage of DMSO would lead to stable DMSO adducts.
(§1) As the coordinated p-cym and leaving groups are present in all synthesized complexes, we focused on the differently substituted 4-phenylthiazoles for estimated changes in lipophilicity.

[12] = Stability and reactivity in aqueous solution (1H-NMR, UV-vis)
Experimental: The exact concentration of the metal complex stock solutions was calculated on weight-in-volume basis. Complexes were dissolved in water in 1–5 mM concentration.
The path length was 1 cm.
^1H-NMR spectroscopic studies were carried out on a Bruker FT-NMR spectrometer AV NEO 500.10 MHz and a Bruker Avance III HD Ascend 500 Plus instrument. All ^1H-NMR spectra were recorded using a standard Bruker noesygppr1d pulse sequence to suppress water resonance. […] Samples contained 10% (v/v) D2O with a complex concentration of ca. 1 mM. Samples were prepared in pH 1.3 aqueous HCl solution or in pH 7.4 PBS.

[13] = system: SW480 cancer cells; test: Cellular accumulation (ICP-MS) in SW480 cells; conditions: 50 μM, 0.5% DMF in MEM, SW480, exposure time 2 h
Experimental: as §1
Cellular accumulation of the compounds was studied based on a method described previously with modifications. 1.8 × 10^5 SW480 cells per well were seeded in aliquots of 1 mL of complete MEM (see above) into 12-well plates (CytoOne, tissue culture treated, Starlab) and incubated at 37°C for 24 h. Then, cells were exposed for 2 h at 37°C to 50 μM solutions of the test compounds (containing 0.5% DMF) in fresh 0.5 mL of complete MEM upon exchange of the medium. Afterward, cells were washed three times with 1 mL PBS per well, lysed with 0.4 mL sub-boiled HNO3 per well for 1 h at room temperature, and 0.3 mL of each sample was diluted with 7.7 mL Milli-Q water. Adsorption/desorption controls were prepared in the same manner in cell-free wells. Ruthenium content was quantified by ICP-MS using an ICP-quadrupole MS Agilent 7800 instrument (Agilent Technologies, Waldbronn, Germany) as described previously.

[14] = system: CH1/PA-1 ovarian teratocarcinoma cells; test: MTT assay, inhibition of cancer cell growth, CH1/PA-1; conditions: read-out: 50% inhibitory concentration CH1, exposure time 96 h
Experimental: as §2, §3

[15] = system: SW480 colon adenocarcinoma cells; test: MTT assay, inhibition of cancer cell growth, SW480; conditions: read-out: 50% inhibitory concentration SW480, exposure time 96 h
Experimental: as §2, §3

Cc1ccc(C(C)C)cc1.[Cl][Ru][c]1ccccc1-c1cscn1 [Compound 1a]
IC50 [1]: 18 ± 5 µM | IC50 [2]: 3 µM | IC50 [3]: 24 µM | Stabilization of DNA G-quadruplex structures [4]: stabilize DNA G-quadruplex (G4) structures | Maximal tolerable dose (MTD) for repeated applications ([5]; Balb/c mice, i.p.): 5 mg/kg | Toxicity in mice ([5]; Balb/c mice): highly toxic | MTD fold lower compared to 1c and 3c [5]: 10 fold | Effect on intracellular ROS levels [6]: constantly decrease ROS levels with increasing concentrations | IC50 [7]: 9.5 µM | IC50 [8]: 31 ± 5 µM

Cc1ccc(-c2cscn2)[c]([Ru][Cl])c1.Cc1ccc(C(C)C)cc1 [Compound 1d]
IC50 [2]: 14 µM | IC50 [3]: 34 µM | Stabilization of DNA G-quadruplex structures [4]: stabilize DNA G-quadruplex (G4) structures | IC50 [7]: 19 µM

Cc1ccc(C(C)C)cc1.Cn1cc[n+]([Ru-]2[c]3ccccc3-c3csc[n+]32)c1.O=[N+]([O-])[O-] [Compound 3a, [((3-κN)-1-Methylimidazole)(4-phenylthiazolato-κN,κC2′)(η^6-p-cymene)ruthenium(II)] Nitrate]
IC50 [9]: 11 ± 1 µM | IC50 [1]: 8.4 ± 0.7 µM | Stabilization of oligonucleotides (G4s or B-DNA) [10]: No stabilization | Solubility [11]: 9.08 mM | Sensitivity to chloride: replacement of coordinated MeIm ([12]; 3 M KCl, pH 7.4, UV-vis): could not replace coordinated MeIm | Decomposition at pH 7.4 ([12]; PBS pH 7.4, 1 mM complex, 25°C, within 6 days, 1H-NMR): no decomposition | Behaviour in acidic solution ([12]; pH = 1.0 or 1.3 (HCl), followed in time up to 6 days, 1H-NMR/UV-vis): decomposition | Spectral change at pH 10.0 ([12]; pH = 10.0 (NaOH), within 2 days, UV-vis): no spectral change | Toxicity in mice ([5]; Balb/c mice): highly toxic | MTD fold lower compared to 1c and 3c [5]: 10 fold | Cellular accumulation, fg Ru/cell [13]: 387 ± 16 fg Ru/cell | Effect on intracellular ROS levels [6]: constantly decrease ROS levels with increasing concentrations | IC50 [14]: 1.9 ± 0.1 µM | IC50 [8]: 10.6 ± 0.9 µM | IC50 [15]: 5.4 ± 1.1 µM
